Measured values as given in patent publication US5008267A, “Pyrimidinedione compounds, method of producing the same and antiarrythmic agents containing the same” (Mitsui Toatsu Chemicals, Incorporated, priority 1988, dated 1991).
Counter-ions that a name gives are not always drawn.

Columns and labels:
[1] = system: Purkinje fiber of the right ventricular free wall (myocardial action potential); assay: Influence on myocardial action potential duration time (APD75), isolated right ventricular free wall, microelectrode in Purkinje fiber; format: cell-based, dog; settings: Canis lupus familiaris, 20 min, 20 minutes' incubation; for activation at 3 µg/mL: 3.0 μg/ml; for activation at 3 µg/mL / activation at 10 µg/mL / activation at 1 µg/mL: (B-A)/A×100, read-out: APD75 (%); for activation at 10 µg/mL: 10.0 μg/ml; for activation at 1 µg/mL: 1.0 μg/ml
[2] = system: ventricular muscle refractory period; assay: Influence on ventricular muscle refractory period (ERP); format: in vivo, mongrel dog; settings: Canis lupus familiaris, iv, i.v., (W-Y)/Y×100, read-out: ERP (%; extensibility of refractory period)
Method in brief: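 Anesthetized (pentobarbital 30 mg/kg i.v.) mongrel dog, compound given i.v. or intraduodenally; right ventricle paced via bipolar electrodes at 400 msec, 4 msec pulses, twice threshold, sinus pacemaker abolished with alcohol. Refractory period taken as shortest inter-train interval (10 msec steps) losing response; ERP (%) = (after − before)/before × 100.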

[3] = Toxicity test, mortality rate 24 hours after administration; settings: mouse, in vivo
Procedure: Each of the compounds prepared in the above-mentioned examples was administered into a mouse (ddY strain, male). In each case, oral administration (p.o.) and intra peritoneal administration (i.p.) were separately carried out in a dose of 300 mg/kg and 250 mg/kg, respectively.
A mortality rate (number of specimens: one group=2 to 4 mice) of the mice 24 hours after the administration was calculated, and the results are set forth in Table 3.
Following the same procedure as in Toxicity Test 1, toxicity of the respective compounds prepared in the above examples in Table 5 was tested to calculate a mortality rate of mice.
Administration was made by oral administration (p.o.) in an amount of 300 mg/kg of each compound for one mouse.
Following the same procedure as in Toxicity Test 1, toxicity of the respective compounds prepared in the above examples in Table 7 was tested to calculate a mortality rate of mice.

Cn1c(N2CCN(CCCCc3ccc([N+](=O)[O-])cc3)CC2)cc(=O)n(C)c1=O [Compound 34, 1,3-dimethyl-6-{4-[4-(4-nitrophenyl)butyl]piperazine-1-yl}-2,4(1H,3H)-pyrimidinedione hydrochloride]
activation at 3 µg/mL [1]: 17%
activation at 10 µg/mL [1]: 25%
change in vivo at 0.1 mg/kg [2]: 6%
change in vivo at 0.3 mg/kg [2]: 12%
change in vivo at 1 mg/kg [2]: 12%
change in vivo at 3 mg/kg [2]: 18%
mortality at 24 h ([3]; po, 300 mg/kg (p.o.)): 100%

Cn1c(N2CCN(CCc3ccccc3[N+](=O)[O-])CC2)cc(=O)n(C)c1=O [Compound 10, 1,3-dimethyl-6-{4-[2-(2-nitrophenyl)ethyl]piperazin-1yl}-2,4(1H,3H)-pyrimidinedione oxalate]
activation at 3 µg/mL [1]: 2%
activation at 10 µg/mL [1]: 11%
change in vivo at 0.1 mg/kg [2]: 6.7%
change in vivo at 0.3 mg/kg [2]: 6.7%
change in vivo at 1 mg/kg [2]: 13.3%
change in vivo at 3 mg/kg [2]: 20%
mortality at 24 h ([3]; po, 300 mg/kg (p.o.)): 0%

CCN(CCCc1ccc([N+](=O)[O-])cc1)CCNc1cc(=O)n(C)c(=O)n1C [Compound 4, 1,3-dimethyl-6-{2-<N-ethyl-N-[3-(4-nitrophenyl)propyl]amino>ethylamino}-2,4(1H,3H)-pyrimidinedione hydrochloride]
activation at 1 µg/mL [1]: 11%
activation at 3 µg/mL [1]: 16%
change in vivo at 0.1 mg/kg [2]: 5.6%
change in vivo at 0.3 mg/kg [2]: 11.1%
change in vivo at 1 mg/kg [2]: 16.7%
change in vivo at 3 mg/kg [2]: 16.7%
mortality at 24 h ([3]; ip, 250 mg/kg (i.p.)): 0%
mortality at 24 h ([3]; po, 300 mg/kg (p.o.)): 0%

CC(=O)OCCN(CCCc1ccc([N+](=O)[O-])cc1)CCNc1cc(=O)n(C)c(=O)n1C [Compound 167, 1,3-dimethyl-6-{2-[N-(2-acetoxyethyl)-3-(4-nitrophenyl)propylamino]ethylamino}-2,4(1H,3H)-pyrimidinedione oxalate]
activation at 1 µg/mL [1]: 16%
activation at 3 µg/mL [1]: 21%
activation at 10 µg/mL [1]: 26%
change in vivo at 0.1 mg/kg [2]: 8%
change in vivo at 0.3 mg/kg [2]: 8%
change in vivo at 1 mg/kg [2]: 15%
change in vivo at 3 mg/kg [2]: 15%
mortality at 24 h ([3]; po, 300 mg/kg (p.o.)): 0%

COC(=O)CN(CCCNc1ccc([N+](=O)[O-])cc1)CCNc1cc(=O)n(C)c(=O)n1C [Compound 166, 1,3-dimethyl-6-{2-[N-methoxycarbonylmethyl-3-(4-nitroanilino)propylamino]ethylamino}-2,4(1H,3H)-pyrimidinedione hydrochloride]
activation at 1 µg/mL [1]: 8%
activation at 3 µg/mL [1]: 18%
change in vivo at 0.1 mg/kg [2]: 6.7%
change in vivo at 0.3 mg/kg [2]: 6.7%
change in vivo at 1 mg/kg [2]: 6.7%
change in vivo at 3 mg/kg [2]: 6.7%
mortality at 24 h ([3]; po, 300 mg/kg (p.o.)): 0%

CSc1ccc(OCCCN2CCN(c3cc(=O)n(C)c(=O)n3C)CC2)c([N+](=O)[O-])c1 [Compound 147, 1,3-dimethyl-6-{4-[3-(4-methylthio-2-nitrophenyloxy)propyl]piperazin-1-yl}-2,4(1H,3H)-pyrimidinedione hydrochloride]
activation at 1 µg/mL [1]: 14%
activation at 3 µg/mL [1]: 18%
change in vivo at 0.1 mg/kg [2]: 0%
change in vivo at 0.3 mg/kg [2]: 0%
change in vivo at 1 mg/kg [2]: 0%
mortality at 24 h ([3]; po, 300 mg/kg (p.o.)): 0%

Cn1c(N2CCN(CCCOc3ccc([N+](=O)[O-])cc3Cl)CC2)cc(=O)n(C)c1=O [Compound 141, 1,3-dimethyl-6-{4-[3-(2-chloro-4-nitrophenyloxy)propyl]piperazin-1-yl}-2,4(1H,3H)-pyrimidinedione hydrochloride]
activation at 1 µg/mL [1]: 27%
activation at 3 µg/mL [1]: 41%
change in vivo at 0.1 mg/kg [2]: 0%
change in vivo at 0.3 mg/kg [2]: 2.1%
change in vivo at 1 mg/kg [2]: 2.1%
change in vivo at 3 mg/kg [2]: 15%
mortality at 24 h ([3]; po, 300 mg/kg (p.o.)): 0%

Cn1c(N2CCN(CCCOc3ccc([N+](=O)[O-])cc3C(=O)c3ccccc3)CC2)cc(=O)n(C)c1=O [Compound 80, 1,3-dimethyl-6-{4-[3-(2-benzoyl-4-nitrophenoxy)propyl]piperazin-1-yl}-2,4(1H,3H)-pyrimidinedione oxalate]
activation at 1 µg/mL [1]: 19%
activation at 3 µg/mL [1]: 30%
activation at 10 µg/mL [1]: 34%
change in vivo at 0.1 mg/kg [2]: 2.6%
change in vivo at 0.3 mg/kg [2]: 9.7%
change in vivo at 1 mg/kg [2]: 21.9%
mortality at 24 h ([3]; po, 300 mg/kg (p.o.)): 0%

Cn1c(N2CCN(CCCOc3ccc([N+](=O)[O-])cc3C(=O)c3ccccc3Cl)CC2)cc(=O)n(C)c1=O [Compound 105, 1,3-dimethyl-6-{4-<3-[2-(2-chlorobenzoyl)-4-nitrophenoxy]propyl>piperazin-1-yl}-2,4(1H,3H)-pyrimidinedione oxalate]
activation at 1 µg/mL [1]: 11%
activation at 3 µg/mL [1]: 23%
activation at 10 µg/mL [1]: 28%
change in vivo at 0.1 mg/kg [2]: 0%
change in vivo at 0.3 mg/kg [2]: 0%
change in vivo at 1 mg/kg [2]: 6.3%
change in vivo at 3 mg/kg [2]: 6.3%
mortality at 24 h ([3]; po, 300 mg/kg (p.o.)): 0%

Cn1c(N2CCN(CCCOc3ccc(C(=O)c4ccccc4)cc3[N+](=O)[O-])CC2)cc(=O)n(C)c1=O [Compound 78, 1,3-dimethyl-6-{4-[3-(4-benzoyl-2-nitrophenoxy)propyl]piperazin-1-yl}-2,4(1H,3H)-pyrimidinedione oxalate]
activation at 1 µg/mL [1]: 19%
activation at 3 µg/mL [1]: 42%
change in vivo at 0.1 mg/kg [2]: 6.7%
change in vivo at 0.3 mg/kg [2]: 13.3%
change in vivo at 1 mg/kg [2]: 20%
change in vivo at 3 mg/kg [2]: 26.7%
mortality at 24 h ([3]; po, 300 mg/kg (p.o.)): 0%

Cn1c(N2CCN(CCCOc3cc([N+](=O)[O-])ccc3O)CC2)cc(=O)n(C)c1=O [Compound 145, 1,3-dimethyl-6-{4-[3-(2-hydroxy-5-nitrophenyloxy)propyl]piperazin-1-yl}-2,4(1H,3H)-pyrimidinedione hydrochloride]
activation at 1 µg/mL [1]: 7%
activation at 3 µg/mL [1]: 16%
activation at 10 µg/mL [1]: 23%
change in vivo at 0.1 mg/kg [2]: 0%
change in vivo at 0.3 mg/kg [2]: 6.7%
change in vivo at 1 mg/kg [2]: 6.7%
change in vivo at 3 mg/kg [2]: 20%
mortality at 24 h ([3]; po, 300 mg/kg (p.o.)): 0%

CCN(CCNCCCCc1ccc([N+](=O)[O-])cc1)c1cc(=O)n(C)c(=O)n1C [Compound 26, 1,3-dimethyl-6-{N-ethyl-N-<2-[4-(4-nitrophenyl)butylamino]ethyl>amino}-2,4(1H,3H)-pyrimidinedione oxalate]
activation at 1 µg/mL [1]: 20%
activation at 3 µg/mL [1]: 30%
activation at 10 µg/mL [1]: 35%
change in vivo at 0.1 mg/kg [2]: 6.5%
change in vivo at 0.3 mg/kg [2]: 6.5%
change in vivo at 1 mg/kg [2]: 6.5%
change in vivo at 3 mg/kg [2]: 6.5%
mortality at 24 h ([3]; ip, 250 mg/kg (i.p.)): 50%
mortality at 24 h ([3]; po, 300 mg/kg (p.o.)): 0%

Cn1c(NCCN(CCO)CCCc2ccc([N+](=O)[O-])cc2)cc(=O)n(C)c1=O [Compound 8]
activation at 0.3 µg/mL ([1]; 0.3 μg/ml, (B-A)/A×100): 16%
activation at 1 µg/mL [1]: 22%
activation at 3 µg/mL [1]: 38%
change in vivo at 0.1 mg/kg [2]: 0%
change in vivo at 0.3 mg/kg [2]: 10.7%
change in vivo at 1 mg/kg [2]: 21.4%
change in vivo at 3 mg/kg [2]: 14.2%
mortality at 24 h ([3]; ip, 250 mg/kg (i.p.)): 0%
mortality at 24 h ([3]; po, 300 mg/kg (p.o.)): 0%

CCN(CCNc1ccc([N+](=O)[O-])cc1)CCNc1cc(=O)n(C)c(=O)n1C [Compound 71, 1,3-dimethyl-6-{2-[N-ethyl-2-(4-nitroanilino)ethylamino]ethylamino}-2,4(1H,3H)-pyrimidinedione oxalate]
activation at 1 µg/mL [1]: 8%
activation at 3 µg/mL [1]: 15%
activation at 10 µg/mL [1]: 17%
change in vivo at 0.1 mg/kg [2]: 6.7%
change in vivo at 0.3 mg/kg [2]: 7.7%
change in vivo at 1 mg/kg [2]: 13.4%
change in vivo at 3 mg/kg [2]: 16.6%
mortality at 24 h ([3]; po, 300 mg/kg (p.o.)): 0%
